Results reported in ChEMBL document CHEMBL1122404, “Khellin analogues. 1. General topological requirements for lipid-altering activity in furochromones” (1983).

Key:
[1] = Serum high density lipoprotein (HDL) cholesterol alteration by the compound at 50 mg/kg/day dose in normocholesterolemic Male S.E.A. Japanese quail with 5-7 weeks of age; type: functional, Coturnix
[2] = Serum lipoprotein (VLDL+LDL) cholesterol alteration by the compound at 50 mg/kg/day dose in normocholesterolemic Male S.E.A. Japanese quail with 5-7 weeks of age; type: functional, Coturnix
[3] = Total Serum lipoprotein cholesterol alteration by the compound at 50 mg/kg/day dose in normocholesterolemic Male S.E.A. Japanese quail with 5-7 weeks of age

Compound | T/C [1] | T/C [2] | T/C [3]
COc1c2occc2c(OC)c2c(=O)cc(C)oc12 [KHELLIN] | 1.46 | 0.37 | 1.21
COc1c2ccoc2cc2oc(C)cc(=O)c12 [VISNAGIN] | 1.42 | 0.51 | 1.21
COc1c2occc2c(OC)c2c(=O)cc(C(C)C)oc12 | 1.4 | 0.49 | 1.17
COc1c2c(c(OC)c3occc13)OC(C)CC2=O (stereo unspecified) | 1.45 | 0.55 | 1.24
COc1c2occc2c(OC)c2c(=O)cc(CN(C)C)oc12 | 0.92 | 0.37 | 0.82
COc1c2c(c(OC)c3c(=O)cc(C)oc13)CCO2 | 1.17 | 0.74 | 1.07
COc1c2occc2c(OC)c2c(=O)cc(CSC)oc12 [TIMEFURONE] | 1.68 | 0.47 | 1.36
COc1c2occc2cc2c(=O)cc(C)oc12 | 1.19 | 0.77 | 1.09
Cc1cc(=O)c2cc3ccoc3cc2o1 | 1.05 | 0.84 | 1.01
COCc1cc(=O)c2c(OC)c3ccoc3c(OC)c2o1 | 1.63 | 0.57 | 1.35
COc1c2occc2c(OC)c2c(=O)cc(CSc3ccccc3)oc12 | 1.33 | 0.43 | 1.09
COc1c2occc2c(OC)c2c(=O)ccoc12 | 1.36 | 0.42 | 1.15
